# How the values were obtained:
# [1] = test system: RAW264.7 macrophages; experiment: Cell viability assay (CCK-8) in RAW264.7 macrophages; assay type: cell-based; conditions: RAW 264.7 cells, 24 h, tested at 20, 40, 80 μmol/L
# Method: RAW264.7 macrophages were seeded in 96-well plates (5 × 10^4 cells/well) and cultured at 37 °C with 5% CO₂ for 24 h. After adhesion, test samples (20, 40, 80 μmol/L) or medium (blank) were added and incubated for 24 h. Subsequently, 10 μL of CCK-8 solution was added, and after 2 h of incubation, the absorbance was measured at 450 nm.
# Cell viability (%) = (ODsample/ODblank) × 100%
# [2] = test system: RAW 264.7 cells; experiment: NO production inhibition in LPS-induced RAW 264.7 cells (Griess reagent method); assay type: cell-based; conditions: LPS-induced (10 μg/mL) RAW 264.7 cells, 24 h, mean ± standard deviation (n = 3)
# Method: RAW 264.7 cells were cultured as above, then divided into blank control, LPS-induced (10 μg/mL, model), and sample-treated groups. After 24 h, supernatants were centrifuged (12,000 r/min, 5 min) and collected. NO production was assessed using the standard Griess reagent method (Fan et al. [2023]).
# Inhibition rate (%) = [(NOmodel – NOsample)/(NOmodel – NOblank)] × 100%.
Compound,"IC50 ([2]; Mus musculus, RAW264.7) [µM]",Cytotoxicity [1] [µmol/L],IC50 [2] [µM]
"C[C@]1(CO)OC(=O)c2c1ccc1c2COC1=O [Compound 2, Marasmiellactone S]",16.7 ± 1.6,> 80,–
"N=C(N)NN [Aminoguanidine, aminoguanidine, reference compound]",–,> 80,12.5 ± 1.8
"C[C@@H]1OC(=O)c2c1ccc1c2COC1=O [Compound 4, 10-normarasmiellactone R]",15.5 ± 1.4,> 80,–
"CC(=O)OC[C@@]1(C)OC(=O)c2c1ccc1c2COC1=O [Compound 3, 10-O-acetylmarasmiellactone S]",22.1 ± 2.6,> 80,–
"CC1(C)OC(=O)c2c1ccc1c2COC1=O [Compound 1, Marasmiellactone R]",18.2 ± 1.9,> 80,–

# Second part, led by results:
"IC50 ([2]; Mus musculus, RAW264.7) [µM]",Compound,Cytotoxicity [1] [µmol/L],IC50 [2] [µM]
53.5 ± 3.9,"CC(C)(CC(=O)O)c1ccc(C(=O)O)c2c1C(=O)NC2=O [Compound 5, Marasmielolic acid A]",> 80,–
50.8 ± 3.4,"COC(=O)C(C)(C)c1ccc(C(=O)O)c2c1C(=O)OC2O (racemic) [Compound 8, (±)-Marasmielolic acid D]",> 80,–
69.2 ± 3.1,"CC(C)(C(=O)O)c1ccc(C(=O)O)c2c1C(=O)OC2 [Compound 7, normarasmielolic acid B]",> 80,–
> 100,"COC(=O)c1c(C(=O)O)ccc2c1C(=O)OC2(C)C [Compound 9, Marasmielolic acid E]",> 80,–
65.4 ± 4.6,"CC(C)(CC(=O)O)c1ccc(C(=O)O)c2c1C(=O)OC2 [Compound 6, Marasmielolic acid B]",> 80,–
> 100,"COC(=O)c1c(C(=O)O)ccc2c1C(=O)C(O)=CC2(C)C [Compound 10, Marasmielolic acid F]",> 80,–
